The conditions of series [1]: cited from earlier work.
Series [2] deals with A431 cells. The series can be described thus: EGF-IRDye 700DX light-dependent killing. The format is cell-based. The settings on record: for light-dependent killing: 24 hours. On the procedure: Photo-activated EGF-IR700 cell killing was assessed in A431 cells. A431 cells were seeded at 5000 cells per well in 96 well white clear bottom dishes one day prior to the experiment. The following day, the A431 cells were washed three times with EMEM supplemented with 1% Penicillin/Streptomycin (serum free media). The A431 cells were then washed one time with serum free media, then incubated with serum free media containing 1 μg/mL of EGF-IRDye 700DX for one hour at 4° C. or serum free media only. […] The cells were then washed one time with serum free media.
To induce IR700-dependent killing, the cells were then illuminated with a 690 nm laser with 32 J/cm^2 of light or protected from light (“no light”). Cell death was evaluated as described in Example 6 using CellTox Green. The normalized percentage of dead cells was calculated by subtracting all wells by the percentage of dead cells from the no light serum free media only control, dividing by EGF-IRDye 700DX at 32 J/cm^2 minus the no light serum free media only control, and multiplied 100.
The effect of EGF-IRDye 700DX pre-exposure to white light versus green light on photo-activated cell killing was also evaluated in A431 cells. EGF-IRDye 700DX was pre-exposed to different types of light and the effect of light treatment on photo-activated killing activity was evaluated. Five microliters of EGF-IRDye 700DX conjugate (DAR 2) was added per clear HPLC vial at a EGF-IRDye 700DX concentration of 1.14 mg/mL. The following conditions were tested: (1) the antibody-IRDye 700DX conjugate stored at 4° C. protected from light (“4° C.”, used as the control); (2) antibody-IRDye 700DX conjugate placed in a clear glass HPLC tube under a Halogen lamp at 2500 lux for 24 hrs (“white light”); (3) antibody-IRDye 700DX conjugate placed in a clear glass HPLC tube wrapped in aluminum foil to protect from light exposure under Halogen lamp at 2500 lux for 24 hrs (“no light”), used as a control for thermal heating effects on the formation of aggregates); and (4) antibody-IRDye 700DX conjugate placed in a clear glass HPLC tube and exposed to green LED lamp at 2500 lux for 24 hrs (“green light”).
To assess cell killing activity, A431 cells were washed two times with serum free media, and incubated in serum free media alone for one hour at 4° C. The cells were then washed one time with serum free media and incubated with serum free media alone or serum free media containing 1 μg/mL of EGF-IRDye 700DX (“no light”), serum free media containing 1 μg/mL of EGF-IRDye 700DX pre-exposed to white light (“2500 Lux White light”), or serum free media containing 1 μg/mL EGF-IRDye 700DX pre-exposed to green light for one hour at 4° C. (“2500 Lux Green light”). The cells were then washed one time with serum free media.
To induce cell killing, the cells were either protected from light (light dose 0 J/cm^2) or were illuminated with a 690 nm laser with different light dosimetries (8 J/cm^2, 32 J/cm^2 or 64 J/cm^2).

For series [3], the system named is BxPC3 pancreatic cancer cells. The series can be described thus: In vitro PIT with panitumumab conjugates. The format is cell-based. Particulars: 10 μg/mL; for killing: 8 J/cm^2 at 690 nm. On the procedure: The two conjugates were tested for efficiency in killing cells in an in vitro PIT assay using the pancreatic cancer line BxPC3. BxPC3 were seeded into 96-well white-wall plates (4,000 cells/well) the day before the experiment. Antibody conjugates were added to cells at a concentration of 10 μg/mL and were incubated for 2 hours at 37° C. Light of 690 nm was applied by a diode at a constant power output of 50 mW/cm^2. The illumination time was modulated to achieve the fluences 4 J/cm^2, 8 J/cm^2 or 16 J/cm^2. As a control, a group of cells was not irradiated with light (0 J/cm^2). To monitor the progression of cell death after light treatment, the conjugate containing medium was replaced by fresh medium containing CellTox Green (Promega), a dye that reports cell death based on compromised cell membrane integrity. Time dependent increase in cell death was observed over 24 hours.

The subject of series [4] is human iDCs. The series is described as follows: DC activation after priming with PIT-killed FaDu cells and Poly I:C treatment. In kind it is cell-based. Particulars: 1 μg/mL overnight, DCs primed with FaDu cells PIT-killed with Cetuximab IRDye 700DX, vs no light controls. On the procedure: FaDu cells grown in complete EMEM media were plated in 100 μL total volume per well in a 96 well tissue culture plate for adherence overnight. […] PIT cell killing was induced by illumination with a 690 nm laser light at a fluence of 12 J/cm^2. The controls represented wells corresponding to the groups not treated with light.
For co-culture, human iDCs (Astarte Biologics) from a healthy donor were directly added into the wells with PIT killed tumor cells and into control wells (non-PIT treated tumor cells). The co-cultures were then incubated for 48 hours at 37° C. in the CO2 incubator. The harvested DCs were then subjected to poly I:C treatment (1 μg/mL) for overnight. The cells were then detached using a non-enzymatic detachment solution.
The harvested cells from various treatment conditions were incubated with live/dead discrimination dye Zombie Green (BioLegend, 1:500) for 20 min at room temperature followed by washing with stain buffer. Cells were resuspended in stain buffer and human Fc blocking reagent (BD) was then added and cells were incubated for 20 min at room temperature. […]
Appropriate gating was performed while analyzing the data to exclude cell debris, and the data was analyzed with gating performed on live events. The results described below are based on median fluorescence intensity (MFI) data from each group which is plotted as fold increase over the no light controls.

For series [5] the following is noted: in vivo, 400 mg/m2; cited from earlier work.

Results on eight compounds are retold here after patent publication US11147875B2, “Compositions, combinations and related methods for photoimmunotherapy” (priority 2015, dated 2021).

Where two headings read alike, the source gives them in different places.

As to `Oc1cccc(-c2c3nc(c(-c4cccc(O)c4)c4ccc([nH]4)c(-c4cccc(O)c4)c4nc(c(-c5cccc(O)c5)c5ccc2[nH]5)CC4)C=C3)c1` [Foscan®, meta-tetrahydroxyphenylchlorin], in series [1] (652 nm), the extinction coefficient was 22000 M⁻¹ cm⁻¹.

Consider `C=Cc1c(C)c2cc3nc(c(CC(=O)N[C@@H](CC(=O)[O-])C(=O)[O-])c4[nH]c(cc5nc(cc1[nH]2)C(C)=C5CC)c(C)c4C(=O)[O-])[C@@H](CCC(=O)[O-])[C@@H]3C.[Na+].[Na+].[Na+].[Na+]` [NPe6/Laserphyrin®, mono-L-aspartylchlorin e6], for which the extinction coefficient in series [1] was 40000 M⁻¹ cm⁻¹.

As for “EGF-IRDye 700DX: human recombinant epidermal growth factor (EGF) conjugated to IRDye 700DX (NSDSECPLSHDGYCLHDGVCMYIEALDKYACNCVVGYIGERCQYRDLKWWELR; Epidermal growth factor IRDye 700DX dye; UniProt P01133 971-1023, looked up)”, the cell killing entry is listed as “light-dependent killing” in series [2] (1 μg/mL, 32 J/cm^2 vs no light) and “blocked light-dependent cell killing” in series [2] (cells pre-exposed to 100 μg/mL unconjugated cetuximab). In addition, the light-dependent killing result in series [2] (conjugate pre-exposed to green light, 2500 lux) is “exhibited light-dependent killing activity comparable”; in series [2] (conjugate pre-exposed to white light, 2500 lux) it was “no longer exhibited light-dependent killing activity”; in series [2] (conjugate protected from light under halogen lamp), “exhibited light-dependent killing”.

For the compound “Pan-IRDye 700DX-Alexa-488: panitumunab conjugated both to IRDye 700DX and Alexa Fluor 488”, the values for the cell killing result in series [3] (4 J/cm^2 at 690 nm) and in series [3] (16 J/cm^2 at 690 nm) were “only marginally effective” and “near complete cell killing”, respectively. The compound further had a killing in series [3] of 73%.

As to “Pan-IRDye 700DX: anti-human EGFR antibody drug panitumumab conjugated only with IRDye 700DX”, the results for the cell killing result in series [3] (4 J/cm^2 at 690 nm) and in series [3] (16 J/cm^2 at 690 nm) were “only marginally effective” and “near complete cell killing”, respectively. In addition, in series [3], the killing was found to be 74%.

Take Photofrin®: the extinction coefficient in series [1] is 1200 M⁻¹ cm⁻¹.

Take Poly I:C: the “CD80 and CD86 expression levels” value in series [4] was “increased CD80 and CD86 expression levels”.

As to “cetuximab: anti-EGFR antibody cetuximab (Erbitux), not conjugated”, the “AUC0-∞” value in series [5] is on record as 24,740 μg/mL*h.
